The results in this text go back to patent US4489084A, “[1-(2-Oxazolyl) or -(2-thiazolyl) hydrazino]alkyl nitriles” (Abbott Laboratories, priority 1983, dated 1984).

The subject of assay [1] is dermal Arthus reaction (Type III hypersensitivity). Kind of assay: reverse passive Arthus assay (Carter and Krause). The conditions noted are these: 100 mg/kg, oral, 30 min before intradermal AntiB.S.A.; lesion after 4 hours; 4 rats per group. In kind it is in vivo, rats (male Sprague-Dawley). As to the method: Proc. 35, 774 (1976). Each compound was administered orally to a group of four animals. The reserve passive Arthus reaction test in rats is conducted as follows: Male Sprague-Dawley rats weighing approximately 130-160 g. are used, 4 rats per group. All animals are injected intravenously with 0.5 ml. 0.075% Bovine Serum Albumin (B.S.A.) +2% Evans Blue solution. Each rat then receives an oral dose of drug; one drug is administered per group. Thirty minutes subsequent to drug dosing, each animal is injected intradermally with 0.05 ml. 1.44% AntiB.S.A. into the dorsal skin. Four hours later the animals are sacrificed, the dorsal skin reflexed, and the lesion excised. Two perpendicular diameters of each lesion are measured. The average diameters of the lesions from the treated groups are compared with the average diameters from the control group to determine any drug effect. […] Proc. 35, 774 (1976)]. Each compound was administered orally to a group of four animals.

Assay [2] concerns carrageenin pleurisy (accumulation of exudate volume and leukocytes). Kind of assay: carrageenin pleurisy assay (modification of Vinegar et al.). The class given is in vivo. As to conditions: Dose 100 (unit not given); for % Inhibition, Volume exudates: exudate volume; for % Inhibition, Cells: leukocyte accumulation. The text has this:
The anti-inflammatory activity of these compounds was established by using a modification of the carrageenin pleurisy assay described by Vinegar et al. Proc. Soc. Exp. Biol. Med. 143:711 (1973).

Counter-ions that a name gives are not always drawn.

Regarding `Cc1nc(N(N)CCC#N)oc1C.Cl` [3-[1-(4,5-dimethyl-2-oxazolyl)-hydrazino]propanenitrile hydrochloride], in assay [1], the “% Inhibition of lesion of dermal Arthus reaction” value is reported as 38%.

As for `CCCCC1C(=O)N(c2ccccc2)N(c2ccccc2)C1=O` [Phenylbutazone, reference compound], in assay [2], the “% Inhibition, Volume exudates” value was 59% and the “% Inhibition, Cells” value stood at 13%. Also, the “% Inhibition of lesion of dermal Arthus reaction” value in assay [1] is given as “Inactive”.

Turning to `Cl.N#CCCN(N)c1ncco1` [3-[1-(2-Oxazolyl)hydrazino]propanenitrile hydrochloride], in assay [2], the “% Inhibition, Volume exudates” value came out at 32% and the “% Inhibition, Cells” value is given as 21%. Further, the “% Inhibition of lesion of dermal Arthus reaction” value in assay [1] is listed as 42%.

On to `N#CCCN(N)c1nc(-c2ccccc2)c(-c2ccccc2)o1` [3-[1-(4,5-diphenyl-2-oxazolylhydrazino)]propanenitrile hydrochloride], for which, in assay [1], the “% Inhibition of lesion of dermal Arthus reaction” value is 40%.

Take `Cl.N#CCCN(N)c1nc(-c2ccccc2)co1` [3-[1-(4-Phenyl-2-oxazolyl)-hydrazino]propanenitrile hydrochloride]: in assay [1], the “% Inhibition of lesion of dermal Arthus reaction” value is reported as 59%.
